Structures can show the parent of a compound that is named as a salt. Where two headings read alike, the source gives them in different places. A value given as a limit tells only on which side of the number the result lay.

One test concerns the target T1, human IKK-β (Homo sapiens, UniProt O14920).
T1 construct: A cDNA fragment encoding human IKK-β open reading frame was generated by PCR; His; made in house; host or cells: Sf21 insect cells (baculovirus); the GST-IκBα substrate was made in E. coli
T1 sequence (O14920 1-756): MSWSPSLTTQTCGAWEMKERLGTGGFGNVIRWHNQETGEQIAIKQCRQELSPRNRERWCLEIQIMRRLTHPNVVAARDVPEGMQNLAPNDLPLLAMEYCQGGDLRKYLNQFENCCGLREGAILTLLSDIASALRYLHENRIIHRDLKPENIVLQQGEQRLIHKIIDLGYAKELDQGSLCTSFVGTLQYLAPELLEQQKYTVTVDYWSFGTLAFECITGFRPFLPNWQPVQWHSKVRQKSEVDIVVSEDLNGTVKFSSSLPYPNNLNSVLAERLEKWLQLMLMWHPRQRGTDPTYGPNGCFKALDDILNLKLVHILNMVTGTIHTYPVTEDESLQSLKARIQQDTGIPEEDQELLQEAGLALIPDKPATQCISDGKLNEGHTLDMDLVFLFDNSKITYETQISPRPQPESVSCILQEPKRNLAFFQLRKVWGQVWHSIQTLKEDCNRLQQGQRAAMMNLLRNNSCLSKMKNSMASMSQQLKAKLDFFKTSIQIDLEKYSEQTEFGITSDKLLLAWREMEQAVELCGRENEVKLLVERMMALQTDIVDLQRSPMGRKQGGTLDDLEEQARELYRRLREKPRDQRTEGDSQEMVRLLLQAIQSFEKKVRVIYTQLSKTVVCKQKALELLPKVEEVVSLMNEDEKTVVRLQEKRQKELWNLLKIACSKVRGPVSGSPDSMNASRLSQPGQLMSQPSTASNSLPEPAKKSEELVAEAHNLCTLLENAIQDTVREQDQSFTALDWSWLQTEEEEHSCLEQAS
The experiment in a line: IKK-β kinase inhibitory assay. The test is classed as biochemical. The following applies: compounds of about 40 to 90% purity, read-out: In vitro activity grade (invitro, IC50). From the text: IKK-β Kinase Inhibitory Assay.
• (1) Preparation of IKK-β Kinase Protein. • A cDNA fragment encoding human IKK-β open reading frame was generated by PCR with the use of a pair of primers designed from the published sequence (Woronicz J D et al. (1997) Science 278,866-869). A template was obtained from Quickclone cDNA (Clontech) using Elongase™ Amplification kit (Life Technologies). The DNA fragments generated by PCR were gel-purified and subcloned into pBluescript. The cDNA fragment cloned in pBluescript was inserted into pcDNA3.1/His C KpnI/NotI, and transferred into pVL1393 SmaI/XbaI (Pharmingen) to construct a baculovirus transfer vector. Then the vector, together with the linearized baculovirus (BaculoGold™, Pharmingen) was used to transfect Sf21 cells (Invitrogen, San Diego, Calif.). Generated recombinant baculovirus was cloned and amplified in Sf21 cells, grown in TNM-FH insect cell medium (Life Technologies, Inc.) supplemented with 10% FCS, […] Gentamycin, 0.1% Pluronic F-68 (Life Technologies, Inc.) as suspension culture (200 ml in 1 L Erlenmeyer flask; 27° C.; 130 rpm). Sf21 cells were infected with this amplified virus with a multiplicity of infection of 5 following standard protocols (Crossen R, Gruenwald S (1997) Baculovirus Expression Vector System Instruction Manual, Pharmingen Corporation) and harvested 48 hrs. later. The cells were lysed to obtain the produced chimeric protein of IKK-β kinase fused by histidine (His-tagged IKK-beta). • (2) The Preparation of Purified GST-IκBα Fusion Proteins • An expression vector containing the nucleotide sequence encoding fusion protein of GST with amino acid residues 1 to 54 of IκBα under the control of an IPTG-inducible promoter was constructed. The expression vector was introduced in E. coli and the transformant was cultured and lysed to obtain a GST-IκBα fusion protein. Then the resulting GST-IκBα fusion protein was purified and biotinated for kinase assay. • (3) The Measurement of IKK-β Kinase Activity • The 96-well format kinase assay of IKK-β was performed to test the inhibitory activity of the compounds of the present invention. First, 5 μl of a test compound was put in the presence of 2.5% dimethyl sulfoxide (DMSO) in each well in a U-bottomed 96-well plate (Falcon). For control wells of background (BG) and total phosphorylation (TP), 5 μl of 2.5% DMSO was put. Recombinant IKK-β (final 0.6 μg/ml) and bio-GST-IκBα (1-54) (final 0.2 μM) were diluted in 25 μl of 2×kinase buffer β (40 mM Tris-HCl, pH 7.6, 40 mM MgCl2, 40 mM β-glycerophosphate, 40 mM p-nitrophenyl-phosphate, 2 mM EDTA, 40 mM creatine phosphate, 2 mM DTT, 2 mM Na3VO4, 0.2 mg/ml BSA and 0.8 mM phenylmethylsulfonyl fluoride) and transferred to the 96-well plate. Bio-GST-IκBα (1-54) in 25 μl of 2×kinase buffer β without IKK-β was transferred to BG wells. Then 20 μl of 12.5 μM ATP, 62.5 μCi/ml [γ-^33P] ATP (Amersham Pharmacia Biotech) was added and the resulting mixture was incubated for 2 hrs. at room temperature. The kinase reactions were terminated by the addition of 150 μl of termination buffer (100 mM EDTA, 1 mg/ml BSA, 0.2 mg NaN3). One handred and fifty μl of the sample was transferred to a streptavidin-coated, white MTP (Steffens Biotechniche Analysen GmbH #08114E14. FWD) to capture the biotinylated substrates. After 1 hr. of incubation, non-bound radioactivity was eliminated by washing the wells five times with 300 μl of washing buffer including 0.9% NaCl and 0.1% (w/v) Tween-20 with the use of a MW-96 plate washer (BioTec). The bound radioactivity was determined after the addition of 170 μl MicroScint-PS scintillation cocktail (Packard) using a TopCount scintillation counter. Syk Tyrosine Kinase Inhibitory Assay for Selectivity. • (1) Preparation of Syk Protein • A cDNA fragment encoding human Syk openreading frame was cloned from total RNA of human Burkitt's lymphoma B cell lines, Raji (American Type Culture Collection), with the use of RT-PCR method. […]

Test [1] concerns RANTES production in response to TNF-α from A549 cells. The experiment in a line: RANTES production in response to TNF-α from A549 cells. The test is classed as cell-based, human. The conditions noted are these: 100 ng/ml TNF-α, compounds of about 40 to 90% purity, read-out: Cellular activity grade (A549, IC50).

For the compound `N#Cc1c(-c2cccc(NC(=O)CCN3CCN(Cc4ccccc4)CC3)c2)cc(-c2ccccc2O)nc1N` [Example 4-11], the IC50 is 2 to 10 µM on human IKK-β and 1 to 10 µM in test [1] (Homo sapiens, A549, 24 h).

In the case of `N#Cc1c(-c2cccc(NC(=O)CCN3CCN(CCO)CC3)c2)cc(-c2ccccc2O)nc1N` [Example 4-13], the IC50 at human IKK-β is 0.5 to 2 µM; in test [1] (Homo sapiens, A549, 24 h) it was 1 to 10 µM.

In the case of `N#Cc1c(-c2ccc(OCC3CC3)c(NC(=O)CNCC3CC3)c2)cc(-c2ccccc2O)nc1N` [Example 4-34], the IC50 was above 10 µM on human IKK-β and 1 to 10 µM in test [1] (Homo sapiens, A549, 24 h).

For the compound `N#Cc1c(-c2ccc(Cl)c(NC(=O)CCN3CCCCC3)c2)cc(-c2ccccc2O)nc1N` [Example 2-18], the IC50 at human IKK-β was 0.5 to 2 µM; in test [1] (Homo sapiens, A549, 24 h), above 10 µM.

On to `N#Cc1c(-c2ccc(N3CCC(NC(=O)C(F)(F)F)C3)c(NC(=O)CNCC3CC3)c2)cc(-c2ccccc2O)nc1N` (centres unmarked) [Example 4-38], for which the IC50 at human IKK-β is below 0.5 µM; in test [1] (Homo sapiens, A549, 24 h), 1 to 10 µM.

As for `COc1cccc(O)c1-c1cc(-c2cccc(NC(=O)C3CCC(=O)O3)c2)c(C#N)c(N)n1` (centres unmarked) [Example 1-12], the IC50 on human IKK-β was 0.5 to 2 µM; in test [1] (Homo sapiens, A549, 24 h), above 10 µM.

Regarding `N#Cc1c(-c2ccccc2C(=O)O)cc(-c2ccccc2O)nc1N` [Example 5-05], the IC50 on human IKK-β is 0.5 to 2 µM; in test [1] (Homo sapiens, A549, 24 h) it was above 10 µM.

As to `COCCNCC(=O)Nc1cc(-c2cc(-c3ccccc3O)nc(N)c2C#N)ccc1N1CCC(NC(=O)C(F)(F)F)C1` (centres unmarked) [Example 4-37], the IC50 at human IKK-β is below 0.5 µM; in test [1] (Homo sapiens, A549, 24 h), 1 to 10 µM.

Regarding `CCN(CCO)c1ccc(-c2cc(-c3ccccc3O)nc(N)c2C#N)cc1NC(=O)CCN` [Example 3-05], the IC50 was 0.5 to 2 µM on human IKK-β and 1 to 10 µM in test [1] (Homo sapiens, A549, 24 h).

In the case of `N#Cc1c(-c2ccc(OCC3CC3)c(NC(=O)CN3CCCCC3)c2)cc(-c2ccccc2O)nc1N` [Example 4-35], the IC50 at human IKK-β was above 10 µM; in test [1] (Homo sapiens, A549, 24 h), above 10 µM.

In the case of `N#Cc1c(-c2ccc(C(=O)O)cc2)cc(-c2ccccc2O)nc1N` [Example 5-02], the IC50 at human IKK-β was 0.5 to 2 µM; in test [1] (Homo sapiens, A549, 24 h) it was above 10 µM.

On to `CC(=O)Nc1nc(-c2ccccc2O)cc(-c2cccc(NC(=O)CCN3CCCCC3)c2)c1C#N` [Example 2-06], for which the IC50 at human IKK-β was above 10 µM; in test [1] (Homo sapiens, A549, 24 h) it was above 10 µM.

In the case of `CC(=O)Nc1ccc(-c2cc(-c3ccccc3O)nc(N)c2C#N)cc1OCCN1CCCCC1` [Example 9, N-{4-[2-amino-3-cyano-6-(2-hydroxyphenyl)-4-pyridinyl]-2-[2-(1-piperidinyl)ethoxy]phenyl}acetamide ditrifluoroacetate], the IC50 at human IKK-β lay in the range of 0.5 to 2 µM; in test [1] (Homo sapiens, A549, 24 h) it was 1 to 10 µM.

Consider `CN(C)c1ccc(-c2cc(-c3ccccc3O)nc(N)c2C#N)cc1NC(=O)CCN1CCCCC1` [Example 4-36], for which the IC50 was in the range of 0.5 to 2 µM at human IKK-β and 1 to 10 µM in test [1] (24 hrs).

In the case of `Cc1ccc(O)c(-c2cc(-c3cccc(NC(=O)C4CCC(=O)O4)c3)c(C#N)c(N)n2)c1` (centres unmarked) [Example 1-11], the IC50 at human IKK-β is above 10 µM; in test [1] (Homo sapiens, A549, 24 h) it was above 10 µM.

`N#Cc1c(-c2cccc(NC(=O)CCCC(=O)O)c2)cc(-c2ccccc2O)nc1N` [Example 1-19]: the IC50 at human IKK-β was 0.5 to 2 µM; in test [1] (Homo sapiens, A549, 24 h), above 10 µM.

Take `N#Cc1c(-c2ccc(C(=O)NCCN3CCCCC3)cc2)cc(-c2ccccc2O)nc1N` [Example 6-02]: the IC50 at human IKK-β was 0.5 to 2 µM; in test [1] (Homo sapiens, A549, 24 h) it was above 10 µM.

For the compound `CC(=O)Nc1ccc(-c2cc(-c3ccccc3O)nc(N)c2C#N)cc1O` [Example 2-16], the IC50 was below 0.5 µM at human IKK-β and 1 to 10 µM in test [1] (Homo sapiens, A549, 24 h).

Consider `N#Cc1c(-c2ccc(Cl)c(NC(=O)CNCC3CC3)c2)cc(-c2ccccc2O)nc1N` [Example 4-30], for which the half-inhibitory concentration (IC50) at human IKK-β is 0.5 to 2 µM; in test [1] (Homo sapiens, A549, 24 h), above 10 µM.

Regarding `N#Cc1c(-c2cccc(NC(=O)CN3CC=CC3)c2)cc(-c2ccccc2O)nc1N` [Example 4-14], the IC50 at human IKK-β fell in the range of 0.5 to 2 µM; in test [1] (Homo sapiens, A549, 24 h), 1 to 10 µM.

`COCCNCC(=O)Nc1cc(-c2cc(-c3ccccc3O)nc(N)c2C#N)ccc1Cl` [Example 4-25]: the IC50 at human IKK-β was below 0.5 µM; in test [1] (Homo sapiens, A549, 24 h), above 10 µM.

As to `N#Cc1c(-c2ccc(N3CCCC3)c(NC(=O)CCN3CCCCC3)c2)cc(-c2ccccc2O)nc1N` [Example 3-1, N-[5-[2-amino-3-cyano-6-(2-hydroxyphenyl)-4-pyridinyl]-2-(1-pyrrolidinyl)phenyl]-3-(1-piperidinyl)propanamide hydrochloride], the concentration for half-maximal inhibition (IC50) at human IKK-β is 0.5 to 2 µM; in test [1] (Homo sapiens, A549, 24 h) it was 1 to 10 µM.

`N#Cc1c(-c2ccc(N3CCC(N)C3)c(NC(=O)CCN)c2)cc(-c2ccccc2O)nc1N` (centres unmarked) [Example 3-02]: the IC50 was below 0.5 µM on human IKK-β and 1 to 10 µM in test [1] (Homo sapiens, A549, 24 h).

As to `Nc1cc(-c2cccc(NC(=O)CNCC3CC3)c2)cc(-c2ccccc2O)n1` [Example 4-39], the half-inhibitory concentration (IC50) at human IKK-β is 2 to 10 µM.

As to `CCNc1ccc(-c2cc(-c3c(O)cccc3OCC3CC3)nc(N)c2CO)cc1O` [Example 8-1, 2-[6-amino-4-[4-(ethylamino)-3-hydroxyphenyl]-5-(hydroxymethyl)-2-pyridinyl]-3-(cycloproylmethoxy)phenol hydrochloride], the IC50 at human IKK-β was in the range of 0.5 to 2 µM.

For `CC(=O)Nc1ccc(-c2cc(-c3c(O)cccc3OCC3CC3)nc(N)c2CO)cc1O` [Example 8-3, N-{4-[2-amino-6-[2-(cyclopropylmethoxy)-6-hydroxyphenyl]-3-(hydroxymethyl)-4-pyridinyl]-2-hydroxyphenyl}acetamide hydrochloride], on human IKK-β, the IC50 was below 0.5 µM.

For the compound `CCn1c(=O)oc2cc(-c3cc(-c4c(O)cccc4OCC4CC4)nc4c3COC(=O)N4)ccc21` [Example 8-2, 7-[2-(cyclopropylmethoxy)-6-hydroxyphenyl-5-(3-ethyl-2-oxo-2,3-dihydro-1,3-benzoxazol-6-yl)-1,4-dihydro-2H-pyrido[2,3-d][1,3]oxazin-2-one hydrochloride], on human IKK-β, the half-inhibitory concentration (IC50) was in the range of 2 to 10 µM.

The values are drawn from US7410986B2, “4-6-diphenyl pyridine derivatives as antiinflammatory agents” (Bayer Aktiengesellschaft, priority 2000, dated 2008).
